Data reported in patent USRE35801E, “Prophylactic and therapeutic composition for circulatory disorders and method of treatment” (priority 1985, dated 1998).
pIC50: −log10 of the molar value.

Columns and labels:
[1] = test system: lipid peroxidation (brain homogenate); test: Inhibitory action of lipid peroxidation in brain homogenate (TBA value); assay type: biochemical; details: inhibition of lipid peroxidation, rat brain homogenate, 37° C., 30 minutes
Description: (1) Inhibitory action of lipid peroxidation (a) Preparation of brain homogenate By use of Wister-strain male rat, brain homogenate was prepared following the procedure as described below. […] Next, a brain perfusion was conducted through the tube with ice-cooled 50 mM phosphate-buffered physiological saline (pH 7.4) hereinafter referred to as "PBS"), and the whole brain was extirpated. After removal of cerebellum, the wet weight of cerebrum was measured and, with addition of 9-fold amount of PBS, it was broken by a Teflon homogenizer in ice-water to be homogenized. After the brain homogenate was subjected to centrifugation at 4° C. at 2200 rpm for 10 minutes, 0.3 ml of the supernatant was apportioned into a light-shielding test tube equipped with a ground stopper, to provide a brain homogenate for evaluation of medicine. (b) Evaluation of test medicine To the brain homogenate produced in (a), 0.6 ml of PBS and 10 μl of ethanolic solution of a test medicine were added (to a final concentration of 500 μM or a concentration at a common ratio of 3 between 0.3 and 100 μm), and the mixture was heated in a warm bath at 37° C. for 30 minutes. […] Also, the same operation was performed by addition of 10 μl of ethanol (blank) in place of 10 μl ethanolic solution of the test medicine for measurement of blank. […] After shaking for about 30 seconds, the mixture was subjected to centrifugation at 3000 rpm for 10 minutes, and the supernatant was provided as a sample for measurement of peroxidized lipid.

[2] = test system: myocardial ischemia (isolated heart, cardiac output); test: Protective action for myocardial ischemia (isolated perfused working heart); design: species or system Wistar strain male rats
From the text: Protective action for myocardial ischemia
When coronary blood flow transporting nutritions to cardiac muscles is interrupted (disorder in blood flow) or recirculated (disorder in recirculation) by a certain cause, cardiac muscles will be damaged (disorder of mycardial ischemia). The degree of such disorder in cardiac muscles will be advanced as the period of ischemia state is prolonged to cause various ischemic cardiac disorders such as the so-called myocardial infarction and cardiac insufficiency.
Accordingly, the protective effect of the Compound No. 1, as a typical compound, on cardiac muscles were examined as described below.
In the experiment, Wistar strain male rats weighing 300 to 400 g were used. The heart was extirpated into a Krebs-Henseleit bicarbonate (KH) solution which had been oxygenated with 95% O2 -5% CO2, under anesthesia by intraperitoneal administration of 50 mg/kg of pentobarbital sodium. Immediately after the isolation, a cannula was intubated into the aorta ascendens, and perfusion was started according to the Langendorff method (75 cm H2 O). Subsequently, the cannula was intubated into the left artium. Then, perfusion in accordance with the Langerdorff method was further conducted for 10 minutes, and then the left artium cannula was opened change the mode of perfusion to that of the working heart method (preload 10 cm H2 O, afterload 80 cm H2 O) (American Journal of Physiology, 212, 804, 1967), which was conducted for 15 minutes. Next, in accordance with the method of Ichihara et al (Journal of Cardiovascular Pharmacology, 5, 745, 1983), the afterload on the aorta was released to provide an ischemic state in the cardiac muscles for 20 minutes. Since five minutes before the initiation of the ischemic state, the perfusate was changed to the one containing the test medicine and such perfusate was used also during the period of the ischemic state. Reperfusion was conducted for 30 minutes with a perfusate containing no test medicine with the afterload of 80 cm H2 O. In order to determine the cardiac functions, coronal perfusion flow (CF), cardiac output (CO), heart rate (HR), aorta pressure (AP) and rate pressure product (HR×AP) were measured. The CF was measured by use of a 10 ml measuring cylinder. The CO was measured through a direct blood flow measuring probe (Model FF-030, 30, produced by Nihon Kohden K.K.) disposed immediately in front of the left artium cannula, by use of an electromagnetic blood flow meter (Model MFV-2100, produced by Nihon Kohden K.K.) and an amplifier for bioelectricity (Mode AB-621G, produced by Nihon Kohden K.K,). The AP was measured through a pressure transducer (Model MPU-0.5, produced by Nihon Kohden K.K.) connected to the aortic cannula, by use of an amplifier for distortion pressure (Model AP-601G, produced by Nihon Kohden K.K.). The HR was measured by use of an cardiotacho meter (Model AT-601G, produced by Nihon Kohden K.K.). The rate pressure product (HR×AP) was calculated by multiplying the HR by the aortic pressure.
As the perfusate, a KH solution, which had been oxygenated with 95% O2 -5% CO2 and heated to 37° C. was used. The formulation of the KH solution (unit: mM) is as follows. NaCl 118, KCl 4.7, CaCl2 2.5, MgSO4 1.2, KH2 PO4 1.2, NaHCO3 25 and glucose 11. […]
Changes in the cardiac functions after treatment with the test medicine and recovery thereof at reperfusion are indicated in terms of percentage based on the value measured before the treatment with the test medicine. […]

[3] = test system: drowsy pattern of electroencephalogram induced by phenobarbital or pentobarbital sodium salt; test: Antagonistic action against drowsy pattern of electroencephalogram induced by phenobarbital or pentobarbital sodium salt; assay type: in vivo, Wistar-strain male rat; details: Rattus norvegicus; intravenous, sodium salt; drowsy EEG after PHB 30 mg/kg or PBT 5 mg/kg; read-out: Antagonistic action at dose or higher
Description: (2) Antagonistic action against drowsy pattern of so electroencephalogram induced by phenobarbital or pentobarbital sodium salt
A Wistar-strain male rat weighing about 400 g was intramasculary administered with 0.6 mg of d-tubocurarine to be immobilized and, while maintaining the rectal temperature at 37° to 38° C. under artificial respiration, the electroencephalogram of the left cerebral frontal cortex was measured and recorded. Also, within the left femoral artery and vein, cannulas for measurement of artery pressure and for administration of medicine were placed, respectively.
As the active ingredient of the present invention, sodium salt of the compound represented by Formula (I) was used and the respective doses of said active ingredient and 30 mg/kg of phenobarbital sodium salt (produced by Iwaki Seiyaku K.K.) (hereinafter called "PHB") or 5 mg/kg of pentobarbital sodium salt (hereinafter called PBT) were each dissolved in physiological saline and administered intravenously in a liquid amount of 1 ml/kg.
The action of the active ingredient of the present invention affecting the cortex electroencephalogram after PHB or PBT administration was investigated as follows; Namely, at the time of 5 minutes or later after PHB or PBT administration when increase of the slow-wave component can be clearly recognized on electroencephalogram, 1, 3, 10, 30 and 100 mg/kg of the active ingredient were administered. To the control group 1 ml/kg of physiological saline was intravenously administered.
Recording and analysis of electroencephalogram were continuously drawn together with artery pressure, heart rate and rectal temperature on the recorder through a multi-purpose monitoring recording device (model RM-85, produced by Nippon Koden K.K.). At the same time, electroencephalogram was recorded in data recorder (model A-65, produced by Sony K.K.), and compressed spectral array analysis was conducted by means of a computer for medical data processing (ATAC-450, produced by Nippon Koden K.K.).

## CC1=NN(c2ccccc2)C(=O)C1 [Compound 1, 3-methyl-1-phenyl-2-pyrazolin-5-one]
[1]
  pIC50: 4.74
[2]
  protective action for myocardial ischemia (in words): exhibits protective action for myocardial ischemia
[2]; 10^-5 M, 30 minutes after reperfusion after 20 min ischemia, N = 5, mean ± standard error (Table 5)
  Recovery of the cardiac output (CO): 23.8 ± 14.6%
[2]; 30 minutes after reperfusion
  Recovery of the cardiac functions (CO 50% or more), percentage: 40%
[2]; 30 minutes after reperfusion after 20 min cardiac ischemia
  average recovery action based on the cardiac output (CO): 24%
[2]; hearts recovered/total, 30 minutes after reperfusion
  Number of recovery of the cardiac functions (CO 50% or more): 2/5
[3]
  minimal effective dose: ≥ 1 mg/kg
